Measurements: patent US9149475B2, “Protein kinase C inhibitors and uses thereof” (Rigel Pharmaceuticals, Inc., priority 2009, dated 2015)

The molecules below were run on Human primary T cells (assay: IL-2 ELISA, human primary T cell, anti-CD3+CD28+ (whole cell assay)). Conditions: Homo sapiens, T-cell, 24 h, human primary T cells stimulated with anti-CD3 + anti-CD28, 24 hours.
Type: cell-based
Method in brief: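 PBMC-derived T cells, pre-expanded on αCD3/αCD28 with IL-2 and then washed free of IL-2, were preincubated with compound for 1 hr at 37° C (100,000 cells/well). They were then stimulated on 1 μg/ml αCD3 plus 5 μg/ml αCD28 for 24 h, and supernatant IL-2 was measured by ELISA. The counter-assay used 0.5 ng/ml PMA plus 0.1 μM ionomycin instead.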
Molecule CC(C)N1CCC(Oc2ccc(Nc3ncc(F)c(NC4CC(C)(C)NC(C)(C)C4)n3)cc2OC(F)F)CC1 [Compound I-104, N2-(4-(1-isopropylpiperidin-4-yloxy)-3-(difluoromethoxy)phenyl)-5-fluoro-N4-(2,2,6,6-tetramethylpiperidin-4-yl)pyrimidine-2,4-diamine] has an IC50 of less than 250 nM. CC(C)N1CCC(Oc2ccc(Nc3ncc(F)c(NC4CC(C)(C)N(C)C(C)(C)C4)n3)cc2OC(F)F)CC1 [Compound I-105, N2-(4-(1-isopropylpiperidin-4-yloxy)-3-(difluoromethoxy)phenyl)-5-fluoro-N4-(1,2,2,6,6-pentamethylpiperidin-4-yl)pyrimidine-2,4-diamine] showed an IC50 of less than 250 nM. CC1(C)CC(Nc2nc(Nc3cc(OC(F)F)cc(C(F)(F)F)c3)ncc2F)CC(C)(C)N1 [Compound I-106, N2-(3-(difluoromethoxy)-5-(trifluoromethyl)phenyl)-5-fluoro-N4-(2,2,6,6-tetramethylpiperidin-4-yl)pyrimidine-2,4-diamine] was tested, and the IC50 was 500 to 1000 nM. CN1C(C)(C)CC(Nc2nc(Nc3cc(OC(F)F)cc(C(F)(F)F)c3)ncc2F)CC1(C)C [Compound I-107, N2-(3-(difluoromethoxy)-5-(trifluoromethyl)phenyl)-5-fluoro-N4-(1,2,2,6,6-pentamethylpiperidin-4-yl)pyrimidine-2,4-diamine] showed an IC50 of 250 to 500 nM. CCOc1ccc(Nc2ncc(F)c(NC3CC(C)(C)NC(C)(C)C3)n2)cc1OC(F)F [Compound I-108, N2-(3-(difluoromethoxy)-4-ethoxyphenyl)-5-fluoro-N4-(2,2,6,6-tetramethylpiperidin-4-yl)pyrimidine-2,4-diamine] gave an IC50 of less than 250 nM. CCOc1ccc(Nc2ncc(F)c(NC3CC(C)(C)N(C)C(C)(C)C3)n2)cc1OC(F)F [Compound I-109, N2-(3-(difluoromethoxy)-4-ethoxyphenyl)-5-fluoro-N4-(1,2,2,6,6-pentamethylpiperidin-4-yl)pyrimidine-2,4-diamine] was tested, and the IC50 was less than 250 nM. COc1cc(NC(C)=O)cc(Nc2ncc(F)c(NC3CC(C)(C)N(C)C(C)(C)C3)n2)c1 [Compound I-110, N2-(3-Acetylamino-5-methoxyphenyl)-5-fluoro-N4-(1,2,2,6,6-pentamethylpiperidin-4-yl)-2,4-pyrimidinediamine] was tested, and the IC50 was 500 to 1000 nM. In the case of Cc1nnnn1-c1cc(Nc2ncc(F)c(NC3CC(C)(C)N(C)C(C)(C)C3)n2)cnc1O [Compound I-112, 5-(4-(1,2,2,6,6-pentamethylpiperidin-4-ylamino)-5-fluoropyrimidin-2-ylamino)-3-(5-methyl-1H-tetrazol-1-yl)pyridin-2-ol], the IC50 is reported as greater than 1000 nM. Molecule Cc1nnnn1-c1cc(Nc2ncc(F)c(NC3CC(C)(C)N(C)C(C)(C)C3)n2)cnc1OC(C)C [Compound I-113, 5-fluoro-N2-(6-isopropoxy-5-(5-methyl-1H-tetrazol-1-yl)pyridin-3-yl)-N4-(1,2,2,6,6-pentamethylpiperidin-4-yl)pyrimidine-2,4-diamine] has an IC50 of less than 250 nM. Cc1nnnn1-c1cc(Nc2ncc(F)c(NC3CC(C)(C)NC(C)(C)C3)n2)cnc1OC(C)C [Compound I-114, 5-fluoro-N2-(6-isopropoxy-5-(5-methyl-1H-tetrazol-1-yl)pyridin-3-yl)-N4-(2,2,6,6-tetramethylpiperidin-4-yl)pyrimidine-2,4-diamine] was tested, and the IC50 was less than 250 nM. Cc1ccc(C)n1-c1cc(Nc2ncc(F)c(NC3CC(C)(C)N(C)C(C)(C)C3)n2)cnc1OC(C)C [Compound I-115, 5-fluoro-N2-(6-isopropoxy-5-(2,5-dimethyl-1H-pyrrol-1-yl)pyridin-3-yl)-N4-(1,2,2,6,6-pentamethylpiperidin-4-yl)pyrimidine-2,4-diamine] gave an IC50 of 500 to 1000 nM. Cc1ccc(C)n1-c1cc(Nc2ncc(F)c(NC3CC(C)(C)NC(C)(C)C3)n2)cnc1OC(C)C [Compound I-116, 5-fluoro-N2-(6-isopropoxy-5-(2,5-dimethyl-1H-pyrrol-1-yl)pyridin-3-yl)-N4-(2,2,6,6-tetramethylpiperidin-4-yl)pyrimidine-2,4-diamine] showed an IC50 of 500 to 1000 nM. For CCOc1ncc(Nc2ncc(F)c(NC3CC(C)(C)N(C)C(C)(C)C3)n2)cc1OC(F)F [Compound I-117, N2-(5-(difluoromethoxy)-6-ethoxypyridin-3-yl)-5-fluoro-N4-(1,2,2,6,6-pentamethylpiperidin-4-yl)pyrimidine-2,4-diamine], the IC50 was 250 to 500 nM. With CCOc1ncc(Nc2ncc(F)c(NC3CC(C)(C)NC(C)(C)C3)n2)cc1OC(F)F [Compound I-118, N2-(5-(difluoromethoxy)-6-ethoxypyridin-3-yl)-5-fluoro-N4-(2,2,6,6-tetramethylpiperidin-4-yl)pyrimidine-2,4-diamine] the IC50 was 250 to 500 nM. Molecule CN1C(C)(C)CC(Nc2nc(Nc3ccc(OCCN4CCOCC4)c(C(F)(F)F)c3)ncc2F)CC1(C)C [Compound I-119, N2-(4-(2-morpholinoethoxy)-3-(trifluoromethyl)phenyl)-5-fluoro-N4-(1,2,2,6,6-pentamethylpiperidin-4-yl)pyrimidine-2,4-diamine] has an IC50 of 250 to 500 nM. Molecule CC1(C)CC(Nc2nc(Nc3ccc(OCCN4CCOCC4)c(OC(F)F)c3)ncc2F)CC(C)(C)N1 [Compound I-120, N2-(4-(2-morpholinoethoxy)-3-(difluoromethoxy)phenyl)-5-fluoro-N4-(2,2,6,6-tetramethylpiperidin-4-yl)pyrimidine-2,4-diamine] has an IC50 greater than 1000 nM.

Same assay, conditions: human primary T cells stimulated with anti-CD3 + anti-CD28, 24 hours
For CN1C(C)(C)CC(Nc2nc(Nc3cccc(-c4nnnn4CCF)c3)ncc2C#N)CC1(C)C [Compound I-96, 5-Cyano-N2-{3-[1-N-(2-fluoroethyl)-(tetrazol-5-yl)]}phenyl-N4-(1,2,2,6,6-pentamethylpiperidin-4-yl)-2,4-pyrimidinediamine], the IC50 was less than 250 nM. For CC1(C)CC(Nc2nc(Nc3cccc(-c4nnnn4CCF)c3)ncc2C#N)CC(C)(C)N1 [Compound I-97, 5-Cyano-N2-{3-[1-N-(2-fluoroethyl)-(tetrazol-5-yl)]}phenyl-N4-(2,2,6,6-tetramethylpiperidin-4-yl)-2,4-pyrimidinediamine], the IC50 was greater than 1000 nM. Cc1ccc(C)n1-c1cc(Nc2ncc(F)c(NC3CC(C)(C)N(C)C(C)(C)C3)n2)ccc1F [Compound I-100, N2-[3-(2,5-Dimethyl-pyrrol-1-yl)-4-fluoro]phenyl-5-fluoro-N4-(1,2,2,6,6-pentamethylpiperidin-4-yl)-2,4-pyrimidinediamine] was tested, and the IC50 was less than 250 nM. Work on Cc1ccc(C)n1-c1cc(Nc2ncc(F)c(NC3CC(C)(C)NC(C)(C)C3)n2)ccc1F [Compound I-101, N2-[3-(2,5-Dimethyl-pyrrol-1-yl)-4-fluoro]phenyl-5-fluoro-N4-(2,2,6,6-tetramethylpiperidin-4-yl)-2,4-pyrimidinediamine] yielded an IC50 of 250 to 500 nM. With Cc1ccc(C)n1-c1cc(Nc2ncc(F)c(NC3CC(C)(C)N(C)C(C)(C)C3)n2)ccc1C#N [Compound I-102, N2-[4-Cyano-3-(2,5-dimethyl-pyrrol-1-yl)]phenyl-5-fluoro-N4-(1,2,2,6,6-pentamethylpiperidin-4-yl)-2,4-pyrimidinediamine] the IC50 was 250 to 500 nM. Cc1ccc(C)n1-c1cc(Nc2ncc(F)c(NC3CC(C)(C)N(C)C(C)(C)C3)n2)ccc1OC(=O)NC(C)C [Compound I-103, N2-[3-(2,5-Dimethyl-pyrrol-1-yl)-4-(isopropylaminocarboxyloxy)]phenyl-5-fluoro-N4-(1,2,2,6,6-pentamethylpiperidin-4-yl)-2,4-pyrimidinediamine] showed an IC50 of 500 to 1000 nM.
